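48-hour exposure; five concentrations; linearly interpolated endpoints. Abbreviation: GI50, concentration required for 50% inhibition of growth. TGI marks complete inhibition of growth.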
Columns and labels:
Experiment in all cases: DTP human tumour cell line panel, 48 h
SNB-78 CNS = test system: SNB-78 CNS
COLO 205 colon = test system: COLO 205 colon
SNB-19 CNS = test system: SNB-19 CNS
LXFL 529 NSCLC = test system: LXFL 529 NSCLC
M19-MEL melanoma = test system: M19-MEL melanoma
UACC-62 melanoma = test system: UACC-62 melanoma
KM20L2 colon = test system: KM20L2 colon
SF-539 CNS = test system: SF-539 CNS
HCC-2998 colon = test system: HCC-2998 colon
NCI-H226 lung = test system: NCI-H226 lung
DU-145 prostate = test system: DU-145 prostate
T-47D breast = test system: T-47D breast

Row | SMILES | TGI (SNB-78 CNS) | TGI (COLO 205 colon) | TGI (SNB-19 CNS) | TGI (LXFL 529 NSCLC) | TGI (M19-MEL melanoma) | TGI (UACC-62 melanoma) | TGI (KM20L2 colon) | TGI (SF-539 CNS) | TGI (HCC-2998 colon) | TGI (NCI-H226 lung) | TGI (DU-145 prostate) | TGI (T-47D breast) | GI50 (COLO 205 colon) | GI50 (SNB-19 CNS) | GI50 (T-47D breast) | GI50 (DU-145 prostate) | GI50 (UACC-62 melanoma) | GI50 (SF-539 CNS) | GI50 (HCC-2998 colon) | GI50 (NCI-H226 lung)
1 | CON(C)C(=O)C(Cc1ccccc1)NC(=O)OCc1ccccc1 (stereo not drawn) | > 100 µM | > 100 µM | > 100 µM | > 100 µM | > 100 µM | > 100 µM | > 100 µM | > 100 µM | > 100 µM | – | – | – | – | – | – | – | – | – | – | –
2 | O=C(CC1Sc2ccccc2NC1=O)Nc1ccccc1[N+](=O)[O-] (stereo not drawn) | > 100 µM | > 100 µM | > 100 µM | > 100 µM | > 100 µM | > 100 µM | > 100 µM | > 100 µM | > 100 µM | > 100 µM | – | – | – | – | – | – | – | – | – | –
3 | CO[C@](C(=O)OC[C@H]1[C@@H](COC(C)=O)[C@@H]2O[C@H]1c1cc3c(cc12)OCO3)(c1ccccc1)C(F)(F)F | – | 93.2 µM | > 100 µM | – | – | > 100 µM | – | – | 71.9 µM | – | > 100 µM | – | – | – | – | – | – | – | – | –
4 | Oc1ccc(NCn2c(=S)sc3ccccc32)cc1 | – | > 100 µM | > 100 µM | – | – | > 100 µM | – | > 100 µM | > 100 µM | – | > 100 µM | > 100 µM | – | – | – | – | – | – | – | –
5 | CCn1cnc2c(=S)nc(N)[nH]c21 | > 100 µM | > 100 µM | > 100 µM | > 100 µM | > 100 µM | > 100 µM | > 100 µM | > 100 µM | > 100 µM | > 100 µM | – | – | – | – | – | – | – | – | – | –
6 | CCCCCCOc1ccc(/C=N/Nc2cc(C)nc3ccc(Cl)cc23)cc1 | – | 3.04 µM | 3.39 µM | – | – | 3.27 µM | – | 3.26 µM | 3.45 µM | – | 3.57 µM | 3.97 µM | 1.58 µM | 1.88 µM | 1.98 µM | 1.86 µM | 1.78 µM | 1.84 µM | 1.93 µM | –
7 | CCOC(=O)c1csc(NC(=O)CN2CCCC2)n1 | – | > 100 µM | > 100 µM | – | – | > 100 µM | – | > 100 µM | > 100 µM | > 100 µM | > 100 µM | > 100 µM | – | – | – | – | – | – | – | –
8 | CC1NC(=O)C(C)C(c2ccccc2)N(N=O)C1c1ccccc1 (stereo not drawn) | > 100 µM | > 100 µM | > 100 µM | – | – | > 100 µM | > 100 µM | > 100 µM | > 100 µM | > 100 µM | – | – | – | – | – | – | – | – | – | –
9 | COc1cc(/C=C2\CN(S(=O)(=O)c3ccc(C)cc3)C/C(=C\c3cc(CN4CCCC4)c(O)c(OC)c3)C2=O)cc(CN2CCCC2)c1O | – | 2.03 µM | – | – | – | – | – | 3.1 µM | 3.08 µM | 3.16 µM | 2.15 µM | 3.79 µM | 0.568 µM | – | 1.42 µM | 0.926 µM | – | 1.6 µM | 1.64 µM | 1.63 µM

Source: PubChem BioAssay (NCI)
